Assay results as given in US9108983B2, “Pyrrole compounds, a process for their preparation and pharmaceutical compositions containing them” (LES LABORATOIRES SERVIER, priority 2013, dated 2015).
Counter-ions that a name gives are not always drawn.

Experiments:
Bcl-2 protein = Bcl-2 protein (histag-Bcl-2, UniProtKB P10415) (Homo sapiens (Human), UniProt P10415); assay: Inhibition of Bcl-2 by the fluorescence polarisation technique; type: binding; conditions: incubation for 2 hours, read-out: IC50 (nM) Bcl-2 FP
Summary of the method: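 In pH 7.4 buffer (Hepes 10 mM, NaCl 150 mM, Tween20 0.05%), test compounds at increasing concentrations competed with a fluorescein peptide (1.00×10^−8 M final) for histag-Bcl-2 (2.50×10^−8 M final). Readout was fluorescence polarisation after a 2 h incubation.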

[1] = system: RS4;11 leukaemia tumour line; assay: In vitro cytotoxicity (Microculture Tetrazolium Assay); type: cell-based; conditions: Homo sapiens, RS4-11, 48 h, RS4;11 cells, exposed for 48 hours, cell viability; read-out: IC50 (nM) MTT RS4;11
Description: The cytotoxicity studies were carried out on the RS4;11 leukaemia tumour line.
The cells are distributed onto microplates and exposed to the test compounds for 48 hours.
The cell viability is then quantified by a colorimetric assay, the Microculture Tetrazolium Assay (Cancer Res., 1987, 47, 939-942).

Sequence of Bcl-2 protein (P10415 whole entry): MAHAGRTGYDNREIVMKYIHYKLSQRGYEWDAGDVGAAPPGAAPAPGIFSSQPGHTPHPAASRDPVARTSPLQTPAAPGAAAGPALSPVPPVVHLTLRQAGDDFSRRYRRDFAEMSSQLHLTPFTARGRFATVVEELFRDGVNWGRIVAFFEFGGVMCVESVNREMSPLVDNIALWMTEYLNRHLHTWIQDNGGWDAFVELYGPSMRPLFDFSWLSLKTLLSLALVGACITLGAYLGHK

Compound | IC50 (Bcl-2 protein) | IC50 [1]
Cc1c(C(=O)N(c2ccc(O)cc2)c2cnc3c(ccn3C)c2)cc(-c2cc(F)ccc2C(=O)N2Cc3ccccc3C[C@H]2CN2CCOCC2)n1C [Example 385, 5-(5-Fluoro-2-{[(3S)-3-(morpholin-4-ylmethyl)-3,4-dihydroisoquinolin-2(1H)-yl]carbonyl}phenyl)-N-(4-hydroxyphenyl)-1,2-dimethyl-N-(1-methyl-1H-pyrrolo[2,3-b]pyridin-5-yl)-1H-pyrrole-3-carboxamide hydrochloride] | 5.7 nM | 28.7 nM
Cc1c(C(=O)N(c2ccc(O)cc2)c2cc3ccn(C)c3cn2)cc(-c2cc3c(cc2C(=O)N2Cc4ccccc4C[C@H]2CN2CCOCC2)OCO3)n1C [Example 387, N-(4-Hydroxyphenyl)-1,2-dimethyl-N-(1-methyl-1H-pyrrolo[2,3-c]pyridin-5-yl)-5-(6-{[(3S)-3-(morpholin-4-ylmethyl)-3,4-dihydroisoquinolin-2(1H)-yl]carbonyl}-1,3-benzodioxol-5-yl)-1H-pyrrole-3-carboxamide hydrochloride] | 20.6 nM | 243 nM
Cc1c(C(=O)N(c2ccc(O)cc2)c2cc3ccn(C)c3cn2)cc(-c2cc(Cl)ccc2C(=O)N2Cc3ccccc3C[C@H]2CN2CCOCC2)n1C [Example 389, 5-(5-Chloro-2-{[(3S)-3-(morpholin-4-ylmethyl)-3,4-dihydroisoquinolin-2(1H)-yl]carbonyl}phenyl)-N-(4-hydroxyphenyl)-1,2-dimethyl-N-(1-methyl-1H-pyrrolo[2,3-c]pyridin-5-yl)-1H-pyrrole-3-carboxamide hydrochloride] | 14.7 nM | 208 nM
Cc1c(C(=O)N(c2ccccc2)c2cnc3c(ccn3C)c2)cc(-c2cc(Cl)ccc2C(=O)N2Cc3ccccc3C[C@H]2CN2CCOCC2)n1C [Example 390, 5-(5-Chloro-2-{[(3S)-3-(morpholin-4-ylmethyl)-3,4-dihydroisoquinolin-2(1H)-yl]carbonyl}phenyl)-1,2-dimethyl-N-(1-methyl-1H-pyrrolo[2,3-b]pyridin-5-yl)-N-phenyl-1H-pyrrole-3-carboxamide] | 21.2 nM | 173 nM
Cc1c(C(=O)N(c2ccc(O)cc2)c2ccc3c(ccn3C)n2)cc(-c2cc(Cl)ccc2C(=O)N2Cc3ccccc3C[C@H]2CN2CCOCC2)n1C [Example 391, 5-(5-Chloro-2-{[(3S)-3-(morpholin-4-ylmethyl)-3,4-dihydroisoquinolin-2(1H)-yl]carbonyl}phenyl)-N-(4-hydroxyphenyl)-1,2-dimethyl-N-(1-methyl-1H-pyrrolo[3,2-b]pyridin-5-yl)-1H-pyrrole-3-carboxamide hydrochloride] | 30.3 nM | 255 nM
Cc1c(C(=O)N(c2ccccc2)c2ccc(O)cc2)cc(-c2cc(Cl)ccc2C(=O)N2Cc3ccccc3C[C@H]2CCCN2CCOCC2)n1C [Example 392, 5-(5-Chloro-2-{[(3R)-3-[3-(morpholin-4-yl)propyl]-3,4-dihydroisoquinolin-2(1H)-yl]carbonyl}phenyl)-N-(4-hydroxyphenyl)-1,2-dimethyl-N-phenyl-1H-pyrrole-3-carboxamide hydrochloride] | 3.8 nM | 11.4 nM
Cc1c(C(=O)N(c2ccc(O)cc2)c2cnc3c(ccn3C)c2)cc(-c2cc(Cl)ccc2C(=O)N2Cc3ccccc3C[C@H]2CCCN2CCOCC2)n1C [Example 393, 5-(5-Chloro-2-{[(3R)-3-[3-(morpholin-4-yl)propyl]-3,4-dihydroisoquinolin-2(1H)-yl]carbonyl}phenyl)-N-(4-hydroxyphenyl)-1,2-dimethyl-N-(1-methyl-1H-pyrrolo[2,3-b]pyridin-5-yl)-1H-pyrrole-3-carboxamide hydrochloride] | 2.1 nM | 1.95 nM
Cc1c(C(=O)N(c2ccc(O)cc2)c2cnc3c(c2)CCN3C)cc(-c2cc(Cl)ccc2C(=O)N2Cc3ccccc3C[C@H]2CCCN2CCOCC2)n1C [Example 394, 5-(5-Chloro-2-{[(3R)-3-[3-(morpholin-4-yl)propyl]-3,4-dihydroisoquinolin-2(1H)-yl]carbonyl}phenyl)-N-(4-hydroxyphenyl)-1,2-dimethyl-N-(1-methyl-2,3-dihydro-1H-pyrrolo[2,3-b]pyridin-5-yl)-1H-pyrrole-3-carboxamide] | 2.5 nM | 2.76 nM
Cc1c(C(=O)N(c2ccc(O)c(F)c2)c2cnn(C)c2)cc(-c2cc3c(cc2C(=O)N2Cc4ccccc4C[C@H]2CN2CCOCC2)OCO3)n1C [Example 396, N-(3-Fluoro-4-hydroxyphenyl)-1,2-dimethyl-N-(1-methyl-1H-pyrazol-4-yl)-5-(6-{[(3S)-3-(morpholin-4-ylmethyl)-3,4-dihydroisoquinolin-2(1H)-yl]carbonyl}-1,3-benzodioxol-5-yl)-1H-pyrrole-3-carboxamide hydrochloride] | 15.7 nM | 116 nM
Cc1c(C(=O)N(c2ccc(O)c(F)c2)c2cnn(C)c2)cc(-c2cc(Cl)ccc2C(=O)N2Cc3ccccc3C[C@H]2CN2CCOCC2)n1C [Example 399, 5-(5-Chloro-2-{[(3S)-3-(morpholin-4-ylmethyl)-3,4-dihydroisoquinolin-2(1H)-yl]carbonyl}phenyl)-N-(3-fluoro-4-hydroxyphenyl)-1,2-dimethyl-N-(1-methyl-1H-pyrazol-4-yl)-1H-pyrrole-3-carboxamide hydrochloride] | 9.9 nM | 155 nM
Cc1c(N(C(=O)c2cc(-c3ccccc3C(=O)N3Cc4ccccc4C[C@H]3CN3CCOCC3)n(C)c2C)c2ccc(O)cc2)cc(C#N)n1C [Example 406, N-(5-Cyano-1,2-dimethyl-1H-pyrrol-3-yl)-N-(4-hydroxyphenyl)-1,2-dimethyl-5-(2-{[(3S)-3-(morpholin-4-ylmethyl)-3,4-dihydroisoquinolin-2(1H)-yl]carbonyl}phenyl)-1H-pyrrole-3-carboxamide hydrochloride] | 4.2 nM | 10.6 nM
COc1ccc(C(=O)N2Cc3ccccc3C[C@H]2CN2CCOCC2)c(-c2cc(C(=O)N(c3ccc(O)c(F)c3)c3cnn(C)c3)c(C)n2C)c1 [Example 407, N-(3-Fluoro-4-hydroxyphenyl)-5-(5-methoxy-2-{[(3S)-3-(morpholin-4-ylmethyl)-3,4-dihydroisoquinolin-2(1H)-yl]carbonyl}phenyl)-1,2-dimethyl-N-(1-methyl-1H-pyrazol-4-yl)-1H-pyrrole-3-carboxamide hydrochloride] | 20.6 nM | 150 nM

Now from value to compound, other results behind:

IC50 (Bcl-2 protein) | Compound | IC50 [1]
3.5 nM | COc1ccc(N(C(=O)c2cc(-c3cc(Cl)ccc3C(=O)N3Cc4ccccc4C[C@H]3CN3CCOCC3)n(C)c2C)c2ccc(O)cc2)cc1C#N [Example 395, 5-(5-Chloro-2-{[(3S)-3-(morpholin-4-ylmethyl)-3,4-dihydroisoquinolin-2(1H)-yl]carbonyl}phenyl)-N-(3-cyano-4-methoxyphenyl)-N-(4-hydroxyphenyl)-1,2-dimethyl-1H-pyrrole-3-carboxamide hydrochloride] | 7.57 nM
4.5 nM | COc1ncc(N(C(=O)c2cc(-c3cc(Cl)ccc3C(=O)N3Cc4ccccc4C[C@H]3CN3CCOCC3)n(C)c2C)c2ccc(O)cc2)cn1 [Example 397, 5-(5-Chloro-2-{[(3S)-3-(morpholin-4-ylmethyl)-3,4-dihydroisoquinolin-2(1H)-yl]carbonyl}phenyl)-N-(4-hydroxyphenyl)-N-(2-methoxypyrimidin-5-yl)-1,2-dimethyl-1H-pyrrole-3-carboxamide] | 37.1 nM
3.9 nM | Cc1c(C(=O)N(c2ccc(O)cc2)c2cccc(C#N)c2)cc(-c2cc(Cl)ccc2C(=O)N2Cc3ccccc3C[C@H]2CN2CCOCC2)n1C [Example 398, 5-(5-Chloro-2-{[(3S)-3-(morpholin-4-ylmethyl)-3,4-dihydroisoquinolin-2(1H)-yl]carbonyl}phenyl)-N-(3-cyanophenyl)-N-(4-hydroxyphenyl)-1,2-dimethyl-1H-pyrrole-3-carboxamide hydrochloride] | 13.4 nM
49 nM | COC(=O)c1ccnc(N(C(=O)c2cc(-c3cc(Cl)ccc3C(=O)N3Cc4ccccc4C[C@H]3CN3CCOCC3)n(C)c2C)c2ccc(O)cc2)c1 [Example 400, Methyl 2-[{[5-(5-chloro-2-{[(3S)-3-(morpholin-4-ylmethyl)-3,4-dihydroisoquinolin-2(1H)-yl]carbonyl}phenyl)-1,2-dimethyl-1H-pyrrol-3-yl]carbonyl}(4-hydroxyphenyl)amino]pyridine-4-carboxylate hydrochloride] | 469 nM
8 nM | Cc1c(C(=O)N(c2ccc(O)cc2)c2ccc(F)c(C#N)c2)cc(-c2cc(Cl)ccc2C(=O)N2Cc3ccccc3C[C@H]2CN2CCOCC2)n1C [Example 401, 5-(5-Chloro-2-{[(3S)-3-(morpholin-4-ylmethyl)-3,4-dihydroisoquinolin-2(1H)-yl]carbonyl}phenyl)-N-(3-cyano-4-fluorophenyl)-N-(4-hydroxyphenyl)-1,2-dimethyl-1H-pyrrole-3-carboxamide hydrochloride] | 24.3 nM
24.4 nM | Cc1c(C(=O)N(c2ccc(O)cc2)c2ccnc(C#N)n2)cc(-c2cc(Cl)ccc2C(=O)N2Cc3ccccc3C[C@H]2CN2CCOCC2)n1C [Example 404, 5-(5-Chloro-2-{[(3S)-3-(morpholin-4-ylmethyl)-3,4-dihydroisoquinolin-2(1H)-yl]carbonyl}phenyl)-N-(2-cyanopyrimidin-4-yl)-N-(4-hydroxyphenyl)-1,2-dimethyl-1H-pyrrole-3-carboxamide hydrochloride] | 85.5 nM
